Measurements as given in the supplement of paper PMC6045584.
± gives the standard deviation of the averaged measurements.

Tests used:
NILOTINIB = compound: Cc1cn(-c2cc(NC(=O)c3ccc(C)c(Nc4nccc(-c5cccnc5)n4)c3)cc(C(F)(F)F)c2)cn1 [NILOTINIB]; test: surviving fraction relative to DMSO-only wells; higher = less growth inhibition; details: exposure time: 5 days
How it was run: (§1)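 A line counted only if its three screens reached replicate Pearson r >0.7 and median Z' >0.3. Tumour cells in log phase were seeded at 250–500 per well in 384-well plates and, after 24 hours, kept in continuous contact with inhibitors at 0.5, 1, 5, 10, 50, 100, 500 and 1000 nM for five days. Surviving fraction was taken from CellTiter-Glo luminescence relative to the median of DMSO-only wells.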

[1] = compound: C[C@@H]1CN(CC(=O)Nc2ccc3c(c2)Cc2cccc(-c4cc(=O)cc(N5CCOCC5)o4)c2S3)C[C@H](C)O1; test: as above; details: exposure time: 5 days
How it was run: as §1

Row | Test System | surviving fraction (NILOTINIB; 0.5 nM) | surviving fraction (NILOTINIB; 1 nM) | surviving fraction (NILOTINIB; 5 nM) | surviving fraction (NILOTINIB; 10 nM) | surviving fraction (NILOTINIB; 50 nM) | surviving fraction (NILOTINIB; 100 nM) | surviving fraction (NILOTINIB; 500 nM) | surviving fraction (NILOTINIB; 1000 nM) | surviving fraction ([1]; 0.5 nM) | surviving fraction ([1]; 1 nM) | surviving fraction ([1]; 5 nM) | surviving fraction ([1]; 10 nM) | surviving fraction ([1]; 50 nM) | surviving fraction ([1]; 100 nM) | surviving fraction ([1]; 500 nM) | surviving fraction ([1]; 1000 nM)
1 | BT549 BREAST | 1.1 ± 0.15 | 0.924 ± 0.095 | 1.1 ± 0.11 | 1.12 ± 0.11 | 1.05 ± 0.11 | 0.93 ± 0.14 | 1.01 ± 0.16 | 0.964 ± 0.15 | 1.1 ± 0.25 | 0.918 ± 0.16 | 0.996 ± 0.083 | 1.08 ± 0.11 | 0.738 ± 0.14 | 0.741 ± 0.14 | 0.774 ± 0.14 | 0.658 ± 0.27
2 | 93VU HEADNECK | 1.01 ± 0.03 | 0.97 ± 0.013 | 1.1 ± 0.1 | 1.14 ± 0.058 | 0.964 ± 0.049 | 1.03 ± 0.088 | 0.938 ± 0.076 | 0.872 ± 0.057 | 0.955 ± 0.062 | 1.09 ± 0.041 | 1.07 ± 0.069 | 1.05 ± 0.029 | 0.968 ± 0.024 | 0.943 ± 0.067 | 0.893 ± 0.045 | 0.836 ± 0.035
3 | NCIH441 LUNG | 1.08 ± 0.14 | 1.01 ± 0.024 | 1.11 ± 0.037 | 1.05 ± 0.043 | 0.986 ± 0.11 | 0.91 ± 0.17 | 0.874 ± 0.022 | 0.889 ± 0.064 | 1.04 ± 0.092 | 1.03 ± 0.085 | 0.957 ± 0.1 | 1.07 ± 0.062 | 1.11 ± 0.035 | 1.11 ± 0.087 | 1.02 ± 0.056 | 1.14 ± 0.11
4 | SUM159 BREAST | 1.1 ± 0.039 | 1.1 ± 0.021 | 1.11 ± 0.021 | 1.09 ± 0.032 | 1.06 ± 0.023 | 1.077 ± 0.0068 | 1.055 ± 0.0095 | 1.06 ± 0.016 | 1.08 ± 0.012 | 1.15 ± 0.11 | 1.11 ± 0.048 | 1.13 ± 0.11 | 1.11 ± 0.079 | 1.1 ± 0.023 | 1.13 ± 0.11 | 1.05 ± 0.029
5 | SJSA1 BONE | 1.73 ± 0.13 | 1.67 ± 0.1 | 1.65 ± 0.08 | 1.802 ± 0.014 | 1.56 ± 0.1 | 1.69 ± 0.04 | 1.63 ± 0.074 | 1.77 ± 0.044 | 0.993 ± 0.05 | 1.04 ± 0.03 | 1.05 ± 0.029 | 1.06 ± 0.061 | 1 ± 0.017 | 1.05 ± 0.026 | 0.9383 ± 0.0074 | 0.892 ± 0.034
6 | MDAMB231 BREAST | 0.935 ± 0.052 | 0.919 ± 0.025 | 0.866 ± 0.036 | 0.839 ± 0.038 | 0.763 ± 0.043 | 0.857 ± 0.017 | 0.923 ± 0.036 | 0.866 ± 0.039 | 0.965 ± 0.015 | 0.955 ± 0.016 | 0.993 ± 0.035 | 0.988 ± 0.023 | 0.955 ± 0.016 | 0.981 ± 0.021 | 0.73 ± 0.027 | 0.617 ± 0.025
7 | CME SYNOVIAL | 1.17 ± 0.064 | 1.15 ± 0.24 | 1.31 ± 0.15 | 1.21 ± 0.091 | 1.1 ± 0.12 | 1 ± 0.099 | 0.926 ± 0.11 | 0.483 ± 0.026 | 1.35 ± 0.097 | 1.44 ± 0.15 | 1.25 ± 0.042 | 1.28 ± 0.13 | 1.11 ± 0.085 | 1.02 ± 0.054 | 0.689 ± 0.11 | 0.388 ± 0.014
8 | T47D BREAST | 1.02 ± 0.041 | 1.065 ± 0.0097 | 1.07 ± 0.025 | 1.04 ± 0.045 | 1.07 ± 0.051 | 1.06 ± 0.026 | 1.05 ± 0.041 | 1.08 ± 0.038 | 1.02 ± 0.018 | 1.01 ± 0.022 | 1.03 ± 0.013 | 0.9914 ± 0.0016 | 1.06 ± 0.027 | 1.049 ± 0.0087 | 1.047 ± 0.0069 | 0.945 ± 0.051
9 | MDAMB436 BREAST | 0.905 ± 0.076 | 1 ± 0.088 | 1 ± 0.017 | 0.964 ± 0.057 | 0.82 ± 0.087 | 0.915 ± 0.033 | 0.904 ± 0.03 | 0.78 ± 0.051 | 0.892 ± 0.043 | 0.962 ± 0.095 | 0.922 ± 0.027 | 0.928 ± 0.058 | 0.858 ± 0.067 | 0.805 ± 0.068 | 0.761 ± 0.029 | 0.611 ± 0.066
10 | CAL51 BREAST | 0.977 ± 0.039 | 0.897 ± 0.066 | 1.01 ± 0.038 | 0.947 ± 0.073 | 1.03 ± 0.068 | 1.01 ± 0.06 | 0.952 ± 0.059 | 0.971 ± 0.032 | 0.954 ± 0.023 | 0.939 ± 0.028 | 1.02 ± 0.019 | 0.997 ± 0.069 | 1.01 ± 0.028 | 1.02 ± 0.027 | 0.922 ± 0.011 | 0.851 ± 0.026
11 | HOS BONE | 1.05 ± 0.024 | 1.014 ± 0.0049 | 1.05 ± 0.033 | 1.05 ± 0.025 | 1.065 ± 0.0095 | 1.04 ± 0.026 | 1.03 ± 0.025 | 1.02 ± 0.041 | 1.03 ± 0.041 | 1.02 ± 0.032 | 1.06 ± 0.027 | 1.06 ± 0.05 | 1.02 ± 0.039 | 1.01 ± 0.022 | 0.988 ± 0.044 | 0.901 ± 0.048
12 | 143B BONE | 1.09 ± 0.076 | 1.07 ± 0.043 | 1.13 ± 0.1 | 1.11 ± 0.081 | 1.14 ± 0.12 | 1.14 ± 0.11 | 1.1 ± 0.11 | 1.11 ± 0.11 | 1.03 ± 0.034 | 0.994 ± 0.016 | 1.02 | 1.02 ± 0.03 | 1.03 ± 0.035 | 1.01 ± 0.013 | 1 ± 0.011 | 0.9405 ± 0.0064
13 | CAL72 BONE | 1.02 ± 0.031 | 1.06 ± 0.018 | 1.03 ± 0.038 | 1.06 ± 0.018 | 0.979 ± 0.033 | 1.02 ± 0.013 | 0.969 ± 0.062 | 0.977 ± 0.06 | 1.01 ± 0.015 | 1.06 ± 0.03 | 1.03 ± 0.011 | 1.03 ± 0.021 | 0.955 ± 0.021 | 0.97 ± 0.0097 | 0.897 ± 0.026 | 0.811 ± 0.026
14 | SUM149.B1*.S BREAST | 1.09 ± 0.026 | 1.08 ± 0.051 | 1.163 ± 0.0038 | 1.12 ± 0.031 | 1.1 ± 0.046 | 1.13 ± 0.018 | 1.18 ± 0.035 | 1.11 ± 0.036 | 1.07 ± 0.062 | 1.06 ± 0.064 | 1.05 ± 0.025 | 1.03 ± 0.027 | 1.07 ± 0.071 | 1.05 ± 0.016 | 1.08 ± 0.045 | 1.07 ± 0.074
15 | CHLA90 AUTONOMIC GANGLIA | 0.993 ± 0.057 | 1.01 ± 0.082 | 0.957 ± 0.036 | 1.09 ± 0.076 | 1.1 ± 0.055 | 1.14 ± 0.12 | 1.11 ± 0.016 | 1.09 ± 0.077 | 1.03 ± 0.052 | 1.07 ± 0.045 | 0.994 ± 0.07 | 1.08 ± 0.07 | 0.979 ± 0.0078 | 0.999 ± 0.068 | 1 ± 0.11 | 0.966 ± 0.041
16 | YAMATO SYNOVIAL | 1.18 ± 0.14 | 1.22 ± 0.016 | 1.28 ± 0.064 | 1.26 ± 0.1 | 1 ± 0.05 | 0.94 ± 0.096 | 0.771 ± 0.024 | 0.658 ± 0.031 | 1.41 ± 0.1 | 1.44 ± 0.13 | 1.38 ± 0.1 | 1.46 ± 0.03 | 0.925 ± 0.031 | 0.965 ± 0.046 | 0.884 ± 0.14 | 0.855 ± 0.045
17 | LM7 BONE | 1.02 ± 0.027 | 0.9597 ± 0.0087 | 1.07 ± 0.03 | 1.01 ± 0.043 | 0.898 ± 0.084 | 0.957 ± 0.076 | 0.79 ± 0.02 | 0.76 ± 0.07 | 0.909 ± 0.046 | 0.946 ± 0.031 | 0.94 ± 0.048 | 1.09 ± 0.064 | 0.947 ± 0.052 | 0.896 ± 0.033 | 0.798 ± 0.063 | 0.78 ± 0.097
18 | HCT15 LARGE INTESTINE | 1.05 ± 0.082 | 1.01 ± 0.071 | 1.07 ± 0.12 | 1.09 ± 0.12 | 1.09 ± 0.1 | 1.12 ± 0.037 | 1.05 ± 0.11 | 1.06 ± 0.091 | 1.05 ± 0.017 | 1.04 ± 0.061 | 1.05 ± 0.05 | 1.05 ± 0.052 | 1 ± 0.066 | 1.01 ± 0.041 | 1.05 ± 0.052 | 1.08 ± 0.017
19 | SG27 HEADNECK | 1.13 ± 0.03 | 1.09 ± 0.087 | 1.02 ± 0.066 | 1.06 ± 0.063 | 1.11 ± 0.21 | 1.04 ± 0.056 | 1.17 ± 0.091 | 1.23 ± 0.051 | 1.02 ± 0.1 | 0.976 ± 0.047 | 1.13 ± 0.079 | 1.02 ± 0.15 | 0.95 ± 0.056 | 0.988 ± 0.11 | 1.01 ± 0.061 | 1.03 ± 0.1
20 | MG63 BONE | 1.03 ± 0.04 | 1.04 ± 0.053 | 1.11 ± 0.042 | 1.13 ± 0.079 | 1.19 ± 0.043 | 1.23 ± 0.07 | 1.24 ± 0.047 | 1.28 ± 0.049 | 1.03 ± 0.032 | 1.03 ± 0.038 | 1.076 ± 0.0081 | 1.1 ± 0.04 | 1.06 ± 0.02 | 1.08 ± 0.028 | 0.971 ± 0.025 | 0.919 ± 0.022
21 | SCC36 HEADNECK | 1.04 ± 0.035 | 1.02 ± 0.043 | 1.06 ± 0.15 | 1.09 ± 0.046 | 0.839 ± 0.048 | 0.849 ± 0.04 | 0.74 ± 0.052 | 0.79 ± 0.038 | 0.993 ± 0.025 | 1.02 ± 0.058 | 1.09 ± 0.086 | 1.03 ± 0.026 | 0.859 ± 0.071 | 0.896 ± 0.031 | 0.801 ± 0.045 | 0.798 ± 0.031
